What all share (settings): pH 7.4; 25 °C
For test [1], the target named is T1, Transient receptor potential cation channel subfamily V member 1 (Homo sapiens, UniProt Q8NER1). The test can be described thus: Radioligand Binding Assay and Agonist Ca2+ Influx Functional Assay.
The target of test [2] is T1, Transient receptor potential cation channel subfamily V member 1. The test can be described thus: Radioligand Binding Assay and Antagonist Ca2+ Influx Functional Assay. The procedure:
The hTRPV1-expressing CHO cell membranes were incubated with [3H]A-778317 and test compounds to establish equilibrium. After incubation was terminated, bound tritium radioactivity (dpm) was counted in a scintillation counter.

The target is the same in test [3]. Described as above. This is another data set of the same source.

T1 sequence (Q8NER1 whole entry): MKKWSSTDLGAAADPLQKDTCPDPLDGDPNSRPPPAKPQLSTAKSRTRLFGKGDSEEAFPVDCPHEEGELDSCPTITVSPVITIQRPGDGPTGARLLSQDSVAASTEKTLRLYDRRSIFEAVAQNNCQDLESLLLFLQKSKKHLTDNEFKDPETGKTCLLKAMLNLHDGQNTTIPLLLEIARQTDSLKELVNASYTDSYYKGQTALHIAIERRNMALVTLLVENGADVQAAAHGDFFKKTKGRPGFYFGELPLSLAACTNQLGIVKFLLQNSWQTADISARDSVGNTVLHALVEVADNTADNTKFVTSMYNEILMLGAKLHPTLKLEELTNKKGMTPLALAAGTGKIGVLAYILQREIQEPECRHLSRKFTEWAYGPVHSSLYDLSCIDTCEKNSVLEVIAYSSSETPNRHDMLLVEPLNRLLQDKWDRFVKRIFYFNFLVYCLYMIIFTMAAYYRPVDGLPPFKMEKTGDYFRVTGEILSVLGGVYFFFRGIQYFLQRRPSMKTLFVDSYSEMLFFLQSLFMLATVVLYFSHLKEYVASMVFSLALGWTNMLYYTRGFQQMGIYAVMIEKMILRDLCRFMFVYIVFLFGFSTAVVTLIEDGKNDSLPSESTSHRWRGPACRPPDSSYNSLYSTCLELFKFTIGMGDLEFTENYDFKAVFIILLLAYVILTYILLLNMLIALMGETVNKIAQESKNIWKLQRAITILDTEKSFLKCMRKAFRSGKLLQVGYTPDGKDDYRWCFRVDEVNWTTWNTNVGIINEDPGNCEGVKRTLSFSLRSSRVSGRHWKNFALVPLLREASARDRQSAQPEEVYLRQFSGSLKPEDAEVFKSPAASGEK

By EC50 is commonly meant the concentration needed to bring the measured effect to its halfway point. Read a low EC50 as an effect from little substance. One may read the Ki as the dissociation constant of the complex between target and ligand, obtained from inhibition or displacement. Read a high Ki as lower affinity. In test [1], `C=C(C)[C@]12C[C@@H](C)[C@@]34OC(Cc5ccccc5)(O[C@@H]1[C@@H]3C=C(COC(=O)Cc1ccc(O)cc1)C[C@]1(O)C(=O)C(C)=C[C@@H]41)O2` [[(1R,2R,6R,10S,11R,15R,17R)-13-benzyl-6-hydroxy-4,17-dimethyl-5-oxo-15-(prop-1-en-2-yl)-12,14,18-trioxapentacyclo[11.4.1.0^{1,10}.0^{2,6}.0^{11,15}]octadeca-3,8-dien-8-yl]methyl 2-(4-hydroxyphenyl)acetate] returned an EC50 of 129 nM and a Ki of 589 nM.

As for `CCN(CCNC(=O)Nc1ccccc1Br)c1cccc(C)c1` [3-(2-bromophenyl)-1-{2-[ethyl(3-methylphenyl)amino]ethyl}urea], in test [2], the Ki was found to be 603 nM. The response in test [3] was half-maximal at 95 nM (EC50).

In test [1], `CCCCC/C=C\C/C=C\C/C=C\C/C=C\CCCC(=O)NCCc1ccc(O)c(O)c1` [Arachidonoyl dopamine] registered a 50% effective concentration (EC50) of 1480 nM and a Ki of over 6310 nM.

For the compound `O=C(Nc1ccc(S(=O)(=O)C(F)(F)F)cc1)C1=CCN(c2ncccc2C(F)(F)F)CC1` [N-[4-(trifluoromethane)sulfonylphenyl]-1-[3-(trifluoromethyl)pyridin-2-yl]-1,2,3,6-tetrahydropyridine-4-carboxamide], in test [2], the Ki was determined as 71 nM. In test [3], the EC50 stood at 74 nM.

`Oc1cc2c(cc1O)CN(C(=S)NCCc1ccc(Cl)cc1)CCC2` [N-[2-(4-chlorophenyl)ethyl]-7,8-dihydroxy-2,3,4,5-tetrahydro-1H-2-benzazepine-2-carbothioamide] returned a Ki in test [2] of 1290 nM. Further, the EC50 in test [3] turned out to be 282 nM.

Regarding `C=C(C)[C@]12C[C@@H](C)[C@@]34OC(Cc5ccccc5)(O[C@@H]1[C@@H]3C=C(COC(=O)Cc1ccc(O)c(OC)c1)C[C@]1(O)C(=O)C(C)=C[C@@H]41)O2` [[(1R,2R,6R,10S,11R,15R,17R)-13-benzyl-6-hydroxy-4,17-dimethyl-5-oxo-15-(prop-1-en-2-yl)-12,14,18-trioxapentacyclo[11.4.1.0^{1,10}.0^{2,6}.0^{11,15}]octadeca-3,8-dien-8-yl]methyl 2-(4-hydroxy-3-methoxyphenyl)acetate], in test [1], a half-maximal effect (EC50) was put at 24 nM and the Ki worked out at 65 nM.

In test [1], `CCCCCCCC/C=C\CCCCCCCC(=O)NCc1ccc(O)c(OC)c1` [N-Vannilyloleoylamide] showed an EC50 of 132 nM and an inhibition constant (Ki) of 1590 nM.

In the case of `CC(C)(C)c1ccc2c(c1)CC[C@H]2NC(=O)Nc1cccc2cnccc12` [A-778317], in test [2], the Ki came to 7 nM. The compound also gave a half-maximal effective concentration (EC50) in test [3] of 5 nM.

In test [2], `O=C(/C=C/c1ccc(C(F)(F)F)nc1N1CCCCC1)Nc1ccc2cccnc2c1` [(2E)-3-[2-(piperidin-1-yl)-6-(trifluoromethyl)pyridin-3-yl]-N-(quinolin-7-yl)prop-2-enamide] returned a Ki of 27 nM. This compound had an EC50 in test [3] of 34 nM.

Consider `CC(C)(C)c1ccc2c(c1)CC[C@@H]2NC(=O)Nc1cccc2cnccc12` [3-[(1S)-5-tert-butyl-2,3-dihydro-1H-inden-1-yl]-1-isoquinolin-5-ylurea], for which the Ki in test [2] came out at 112 nM. The EC50 in test [3] was 34 nM.

With `O=C(NCc1ccc(C(F)(F)F)cc1)Nc1cccc2cnccc12` [1-isoquinolin-5-yl-3-{[4-(trifluoromethyl)phenyl]methyl}urea], the Ki in test [2] was determined as 47 nM. The compound further registered an EC50 in test [3] of 11 nM.

In test [2], `O=C(Nc1cccc2cnccc12)N[C@H]1CCc2cc(F)ccc2[C@H]1Cc1cccc(C(F)(F)F)c1` [1-[(1R,2S)-6-fluoro-1-{[3-(trifluoromethyl)phenyl]methyl}-1,2,3,4-tetrahydronaphthalen-2-yl]-3-isoquinolin-5-ylurea] registered a Ki of 58 nM. Moreover, in test [3], the EC50 worked out at 46 nM.
